# What was measured:
# [1] = ampicillin dissolved with 95 mole-% sodium carbonate; or aqueous solution of pre-formed salt; cited from earlier work
# [2] = Dissolution of antibiotic powders (cephalosporin plus citric acid) in water, Example 1; format: physicochemical
# Procedure: The following antibiotic powders were formed without sweeteners and flavorings by addition to clear plastic bags and by working of the bags. The mixtures were added to water in the amounts noted and the conditions of dissolution are noted, as well as the resultant pH or the formed solution. Although Example 1 describes the use of citric acid, various other constituents may be utilized as a […] (e.g., various amino acids).
# [3] = in vivo; cited from earlier work
Compound,pH of aqueous solution [1],pH of the formed solution [2],time to form a solution [2],absorbed by the body when ingested [3]
CC1(C)S[C@@H]2[C@H](NC(=O)[C@H](N)c3ccccc3)C(=O)N2[C@H]1C(=O)O [ampicillin],8.3,,,
CC1(C)S[C@@H]2[C@H](NC(=O)[C@H](N)c3ccccc3)C(=O)N2[C@H]1C(=O)[O-].[Na+] [sodium ampicillin],~9.5,,,
"CC1=C(C(=O)O)N2C(=O)[C@@H](NC(=O)[C@H](N)c3ccccc3)[C@H]2SC1 [Cephalexin, αaminobenzyl-3-desacetoxycephalosporin]",,pH of 3.3.,solution in 5 minutes,90%

# From patent US20030069220A1, “METHOD FOR MASS MEDICATION IN BIOLOGICAL ATTACKS” (priority 2001, published 2003)
